# Paper PMC5930436, “Overexpressed HDAC8 in cervical cancer cells shows functional redundancy of tubulin deacetylation with HDAC6” (Cell Communication and Signaling : CCS, 2018)
# Entries after “also recorded” stand apart in the source; their conditions may differ.
# Tests used:
# GST-HDAC8 [1] = assay: Circular dichroism binding study with GST-HDAC8; design: species or system human; conditions: GST-HDAC8 (2 μM) + peptide (500 nM), 25 °C, 190-300 nm
# Procedure: (§1) hHDAC8 (Full length) cDNA was amplified by using a polymerase chain reaction (PCR) with forward primer: 5′– […]-3′ and a reverse primer: 5’–[…]–3′. The PCR product was then sub cloned into pGEX- 6P1 plasmid. Clone was then overexpressed in Escherichia coli strain BL21 (DE3) with standardized expression conditions of 0.1 mM IPTG at 28 °C for 4 h. Induced culture pellet was lysed in 1XPBS buffer (140 mM NaCl, 2.7 mM KCl, 10 mM Na2HPO4, 1.8 mM KH2PO4) along with 1X Protease inhibitor cocktail, 1 mM PMSF, and 0.1 mM DTT. To the lysate 1% Triton X 100 is added and centrifuged for 20 min at a speed of 4000 rpm at 4 °C. Clear supernatant was used for binding with GST binding buffer (25 mM Tris pH 7.5, 300 mM NaCl, 1 mM EDTA, 1X Protease inhibitor cocktail) for 3 h on a rota spin at 4 °C. Binding was followed by collection of unbound and washes with 1X PBS (5 washes). Elutions were collected in 10 mM reduced glutathione, dissolved in 50 mM Tris pH 8.0. The purity of the protein was then analysed on SDS PAGE, followed by Western blot. Activity was then determined by HDAC activity assay.
# Binding studies of GST-HDAC8 protein (2 μM) and acetylated (Lys40) or unacetylated alpha tubulin peptides (500 nM) were carried out on Jasco J-1500 (model L-1500-450) CD spectroscopy. Changes incurred in the secondary structure of GST-HDAC8 upon binding of the peptides were recorded as the mean ellipticity, with given set of parameters: start wavelength of 300 nm, end wavelength of 190 nm, scan speed of 100 nm/min, band width of 2 nm, cuvette cell size of 2 mm and at a temperature of 25 °C with two scan accumulations.
# [2] = test system: acetylated alpha tubulin, HEK 293 T; assay: Immunoblot of acetylated alpha tubulin in HEK 293 T cells; type: cell-based, human; conditions: 24 h; for acetylated alpha tubulin levels: HEK 293 T
# Procedure: (§2) Human embryonic kidney cells, HEK293T, human cervical carcinoma cells, HeLa, human breast cancer cells, MDA-MB 231, human lung adenocarcinoma cellsA549, chronic myeloid leukemia cells, K562, and human colon cancer cells, HCT11, were obtained from National Centre for Cell Sciences (NCCS), Pune, India. Cell line authentication by STR analysis was performed for 10 genetic loci for all the cell lines by Life code, Genomic technologies Pvt. Ltd., and tested for mycoplasma negative by performing PCR (mycoplasma specific genes) using EZdetect PCR kit for mycoplasma detection (CCK009). All the cells were cultured in high glucose DMEM medium containing 10% foetal bovine serum and 1% Penicillin/streptomycin (Himedia). Cells were seeded in 60 mm dishes and upon attaining 80–90% confluency, treatment was given with PCI-34051(Cayman Chemicals) (10 μM/20 μM) and tubastatin (5 μM) for 24 h or both in combination (PCI-34051 and Tubastatin) and Forskolin (Sigma) (10 μM) for 45 min independently along with untreated control as described earlier.
# (§3) Total, cytoplasmic and nuclear fractions of HeLa or HEK 293 T cells treated with or without PCI-34051 (20 μM), [12] tubastatin (5 μM) and/or forskolin (10 μM) were prepared as described previously. Total protein samples of HEK 293 T, HeLa, MDAMB 231, K562, A549 and HCT11 cells / immunoprecipitated HDAC8 and HDAC6 samples from both HeLa and HEK 293 T lysates / HDAC8 siRNA transfected HEK 293 T and HeLa lysates were also prepared. The proteins were separated on 10 or 12% SDS-PAGE, transferred on to nitrocellulose membrane and probed with primary antibodies of HDAC8, Beta actin, Alpha tubulin, anti-acetylated alpha tubulin, HDAC6 and GAPDH. The bands were visualized using chemiluminiscence after probing with HRP-conjugated secondary antibody.
# (§4) Source for siRNA oligonucleotides were considered from with sequence, HDAC8 Sense: […] and Anti-sense: […]. The oligonucleotides were converted into siRNA by following standard protocol as described earlier. HeLa and HEK 293 T cells were transfected with HDAC8 siRNA (10–15 μg/100 mm dish) using lipofectamine 2000 (Invitrogen), and considering untransfected as control. Cells were harvested after 72 h of post-transfection and processed for total RNA and protein isolation.
# HEK 293 T cells [3] = assay: Cell cycle analysis, HEK 293 T; type: cell-based, human; conditions: PCI-34051 (20 μM), 48 h
# Procedure: (§5) Cells (HeLa & HEK 293 T) were grown to attain 70% confluency and were serum starved for 12 h, followed by treatments with PCI-34051 (20 μM) and Paclitaxel (20 μM) respectively for 48 h and processed for cell cycle analysis.
# HeLa cells [4] = assay: Cell migration (wound) assay in HeLa cells; type: cell-based, human
# Procedure: HeLa cells are grown in 6 well plates in duplicates till it attains 90% confluency and starved with serum free media for overnight. Using a sterile 200 μl tip wound is created by drawing straight lines at three different points in each well. Detached cells are aspirated and washed three times with 1XPBS. Cells are treated with PCI-34051 (10 μM & 20 μM) and Paclitaxel (10 μM & 20 μM) dissolved in 2% FBS respectively along with control (untreated). Migrated cells into the wound were examined by capturing images using Olympus CKX41, ProgRes CT3 phase contrast microscope after 24 and 48 h.
# HEK 293 T cells [5] = assay: Cell morphology analysis, HEK 293 T; type: cell-based, human; conditions: 20 μM, 24 & 48 h, vs control
# Procedure: (§6) HeLa and HEK 293 T cells are cultured in 6 well plates till attaining 70% confluency. Cells are starved for 12 h without serum and treated with PCI-34051 (20 μM) and Paclitaxel (20 μM) along with untreated control for 24 & 48 h. Examined difference in the morphology was captured by Olympus CKX41, ProgRes CT3 phase contrast microscope at 10X focussed lens.
# HDAC8 = conditions: cited from earlier work
# From the text: The cytoplasmic localization of HDAC8 was further confirmed by immunoblot analysis using total, cytoplasmic and nuclear protein fractions of HEK 293 T and HeLa (Fig. 1d). […] With forskolin treatment, there was significant inc ... || In silico and spectroscopy based results have confirmed the interaction of HDAC8 with alpha tubulin & acetylated alpha tubulin peptide. To further validate the functional interaction we carried out IP and co-IP experiments with HDAC8 and acetylated alpha tubulin (ac-tubulin) antibodies. […] Densitometry results for the fold expression ...
# HeLa cells [6] = assay: Cell morphology analysis, HeLa; type: cell-based, human; conditions: 20 μM
# Procedure: as §6
# [7] = test system: acetylated alpha tubulin, HeLa; assay: Immunoblot of acetylated alpha tubulin in HeLa cells; type: cell-based, human; conditions: 24 h
# Procedure: as §2, §3, §4
# HeLa cells [8] = assay: Cell cycle analysis, HeLa; type: cell-based, human; conditions: PCI-34051 (20 μM), 48 h, vs untreated control
# Procedure: as §5
# GST-HDAC8 [9] = assay: HPLC-based in vitro deacetylation assay with GST-HDAC8; type: biochemical, human; conditions: GST-HDAC8 (2 μM; 30 μg) + peptide (500 nM), 15 min, 37 °C, 50 mM Tris pH 7.5, 1 mM DTT, HPLC C18
# Procedure: as §1
# In vitro deacetylation assay of custom synthesized acetylated (Lys40) alpha tubulin was carried out on HPLC (Schimadzu) with C18 (4.6 × 250 mm) column as described earlier. […]
molecule,measurement,setting,value
"DGQMPSDKTIGGGD [Unac-alpha tubulin peptide, Custom synthesized, Unacetylated Alpha tubulin peptide …]",change in secondary structure of GST-HDAC8 (CD),GST-HDAC8 [1]; listed as unacetylated form,without any notable differences
same,change in secondary structure of GST-HDAC8 (CD),GST-HDAC8 [1]; listed as unacetylated tubulin,not observed
CN1CCc2c(c3ccccc3n2Cc2ccc(C(=O)NO)cc2)C1 [Tubastatin],"acetylated alpha tubulin levels, compared to PCI-34051 (20 μM) treated condition","[2]; HEK 293T, tubastatin (5 μM) vs PCI-34051 (20 μM)",increases ac-alpha tubulin levels
same,acetylated alpha tubulin levels,"[2]; tubastatin (5 μM), HDAC6 inhibition",increase in ac-alpha tubulin levels
COc1ccc(Cn2ccc3ccc(C(=O)NO)cc32)cc1 [PCI-34051],acetylated alpha tubulin levels,[2]; PCI-34051 (20 μM),no significant increase
same,mitotic phase of cell cycle,HEK 293 T cells [3],did not show any mitotic phase reduction; also recorded: no major significant change in the mitotic phase
same,sub G0/G1 phase,HEK 293 T cells [3],significant increase in the sub G0/G1 phase
same,migration efficiency,"HeLa cells [4]; PCI-34051 (10 μM & 20 μM), upto 48 h",significantly decreased
same,migration efficiency (rank order),"HeLa cells [4]; PCI-34051 (10 μM) or Paclitaxel (10 μM), 24 and 48 h",Control> > Paclitaxel>PCI-34051
same,cell size during migration assay,"HeLa cells [4]; PCI-34051, upto 48 h",notable decrease in cell size
same,cell morphology (aggregation / clump formation),HEK 293 T cells [5],clump formation; also recorded: cell aggregation
same,HDAC8 selectivity,HDAC8,HDAC8 selective inhibitor
same,cell morphology effect compared with positive control,HeLa cells [6]; HeLa (shrinkage) and HEK 293 T (clump formation),quite comparable to that of paclitaxel treated condition
same,cell morphology (cell size),"HeLa cells [6]; HeLa, 24 & 48 h, vs control",reduced (shrinking) cell size; also recorded: decreased cell size (shrinking)
same,"acetylated alpha tubulin levels, compared to tubastatin treated condition",[7]; PCI-34051 (20 μM) vs tubastatin,Increased ac-alpha tubulin levels
same,acetylated alpha tubulin levels,[7]; PCI-34051 (20 μM),ac-alpha tubulin levels increase; also recorded: increased acetylated alpha tubulin levels; also recorded: increased the acetylation of alpha tubulin in HeLa
same,mitotic phase of cell cycle,HeLa cells [8],significant (p < 0.05) reduction in mitotic phase
same,sub G0/G1 peak,HeLa cells [8],increased sub G0/G1 peak
"DGQMPSDKTIGGGD [ac-alpha tubulin peptide, Custom synthesized peptides of alpha tubulin 33–46 amino acids, Acetylated alpha tubulin peptide, at Lys40 …]",in vitro deacetylation by GST-HDAC8 (shift to retention time of unacetylated peptide),GST-HDAC8 [9],clearly demonstrates the in vitro deacetylation of ac-alpha tubulin by GST-HDAC8
same,in vitro deacetylation by GST-HDAC8 (shift to retention time of unacetylated peptide),GST-HDAC8 [9]; listed as acetylated alpha tubulin (Lys40) peptide,significant peak shift in the retention time corresponding to unacetylated peptide
same,change in secondary structure of GST-HDAC8 (CD),GST-HDAC8 [1],significant change in the secondary structure of GST-HDAC8
same,change in secondary structure of GST-HDAC8 (CD),GST-HDAC8 [1]; listed as acetylated alpha tubulin,change in the secondary structure of GST-HDAC8; also recorded: significant change in the secondary structure
